In article PMC7520961, “Safety evaluation of the interchangeable use of robenacoxib in commercially-available tablets and solution for injection in cats” (BMC Veterinary Research, 2020):
“Also recorded” adds a separate entry of the source.

Experiment: Toxicokinetics: robenacoxib concentration in blood by LC-MS/MS
Assay type: in vivo, cat
Procedure: Approximately 0.5 mL of whole blood was collected from animals via the jugular vein and placed in tubes containing K2EDTA. Samples were collected within 30 minutes prior to dosing and at 0.75, and 4 hours postdose on Days 1, 4, 7, 10, 17, 30, and 37. A single 0.5 mL sample was collected from all animals 4 hours postdose on Days 8, 11, 14, 28, 31, and 34. The animals were fasted for predose and 0.75 hour blood collections and were fed 2 to 3 hours after dose administration. Samples were stored frozen (-10 to […]) within approximately 1 hour after collection until analyzed. Day 1 blood samples were inadvertently processed to plasma and therefore not analyzed.
Robenacoxib was quantitatively analyzed in blood using a validated analytical method involving liquid chromatography with tandem mass spectrometry detection (LC-MS/MS) that has been previously describe. Performance of the method was monitored by low, medium and high quality control samples, where inter-run %RSD (relative standard deviation) was 8.3, 7.4, and 5.8, respectively.
Only abbreviated toxicokinetic sampling was performed so as not to interfere with the primary objective of the study. Concentrations below the limit of quantification were considered 0.

## CCc1ccc(Nc2c(F)c(F)cc(F)c2F)c(CC(=O)O)c1 [robenacoxib]
1X, SC 2.0 mg/kg/day, Study Day 8, 4 h postdose
  plasma robenacoxib concentration (mean ± SD): 98.2 ± 60.7 ng/mL
1X, SC 2.0 mg/kg/day, Study Day 10, 0.75 h postdose
  plasma robenacoxib concentration (mean ± SD): 1124.1 ± 325.9 ng/mL
1X, SC 2.0 mg/kg/day, Study Day 10, 4 h postdose
  plasma robenacoxib concentration (mean ± SD): 79.1 ± 51.5 ng/mL
1X, SC 2.0 mg/kg/day, Study Day 28, 4 h postdose
  plasma robenacoxib concentration (mean ± SD): 117.2 ± 86.1 ng/mL
1X, SC 2.0 mg/kg/day, Study Day 30, 0.75 h postdose
  plasma robenacoxib concentration (mean ± SD): 1358.6 ± 254.5 ng/mL
1X, SC 2.0 mg/kg/day, Study Day 30, 4 h postdose
  plasma robenacoxib concentration (mean ± SD): 94.8 ± 68.3 ng/mL
1X, oral ≥2.4 mg/kg/day, Study Day 4, 0.75 h postdose
  plasma robenacoxib concentration (mean ± SD): 2593.1 ± 909.5 ng/mL
1X, oral ≥2.4 mg/kg/day, Study Day 4, 4 h postdose
  plasma robenacoxib concentration (mean ± SD): 22.9 ± 11.6 ng/mL
1X, oral ≥2.4 mg/kg/day, Study Day 7, 0.75 h postdose
  plasma robenacoxib concentration (mean ± SD): 2591.3 ± 875.5 ng/mL
1X, oral ≥2.4 mg/kg/day, Study Day 7, 4 h postdose
  plasma robenacoxib concentration (mean ± SD): 26.9 ± 27.4 ng/mL
1X, oral ≥2.4 mg/kg/day, Study Day 11, 4 h postdose
  plasma robenacoxib concentration (mean ± SD): 34.9 ± 36.2 ng/mL
1X, oral ≥2.4 mg/kg/day, Study Day 14, 4 h postdose
  plasma robenacoxib concentration (mean ± SD): 19.0 ± 7.3 ng/mL
1X, oral ≥2.4 mg/kg/day, Study Day 17, 0.75 h postdose
  plasma robenacoxib concentration (mean ± SD): 2811.3 ± 1502.1 ng/mL
1X, oral ≥2.4 mg/kg/day, Study Day 17, 4 h postdose
  plasma robenacoxib concentration (mean ± SD): 42.7 ± 49.7 ng/mL
1X, oral ≥2.4 mg/kg/day, Study Day 31, 4 h postdose
  plasma robenacoxib concentration (mean ± SD): 27.2 ± 16.0 ng/mL
1X, oral ≥2.4 mg/kg/day, Study Day 34, 4 h postdose
  plasma robenacoxib concentration (mean ± SD): 35.3 ± 28.5 ng/mL
1X, oral ≥2.4 mg/kg/day, Study Day 37, 0.75 h postdose
  plasma robenacoxib concentration (mean ± SD): 2717.6 ± 1589.6 ng/mL
1X, oral ≥2.4 mg/kg/day, Study Day 37, 4 h postdose
  plasma robenacoxib concentration (mean ± SD): 90.4 ± 106.6 ng/mL
2X, SC 4.0 mg/kg/day, Study Day 8, 4 h postdose
  plasma robenacoxib concentration (mean ± SD): 233.6 ± 215.8 ng/mL
2X, SC 4.0 mg/kg/day, Study Day 10, 0.75 h postdose
  plasma robenacoxib concentration (mean ± SD): 1481.3 ± 359.7 ng/mL
2X, SC 4.0 mg/kg/day, Study Day 10, 4 h postdose
  plasma robenacoxib concentration (mean ± SD): 263.1 ± 249.4 ng/mL
2X, SC 4.0 mg/kg/day, Study Day 28, 4 h postdose
  plasma robenacoxib concentration (mean ± SD): 236.6 ± 130.2 ng/mL
2X, SC 4.0 mg/kg/day, Study Day 30, 0.75 h postdose
  plasma robenacoxib concentration (mean ± SD): 1821.6 ± 817.9 ng/mL
2X, SC 4.0 mg/kg/day, Study Day 30, 4 h postdose
  plasma robenacoxib concentration (mean ± SD): 326.0 ± 276.7 ng/mL
2X, oral ≥4.8 mg/kg/day, Study Day 4, 0.75 h postdose
  plasma robenacoxib concentration (mean ± SD): 5177.5 ± 2229.5 ng/mL
2X, oral ≥4.8 mg/kg/day, Study Day 4, 4 h postdose
  plasma robenacoxib concentration (mean ± SD): 54.2 ± 28.5 ng/mL
2X, oral ≥4.8 mg/kg/day, Study Day 7, 0.75 h postdose
  plasma robenacoxib concentration (mean ± SD): 3383.8 ± 1818.8 ng/mL
2X, oral ≥4.8 mg/kg/day, Study Day 7, 4 h postdose
  plasma robenacoxib concentration (mean ± SD): 67.8 ± 58.5 ng/mL
2X, oral ≥4.8 mg/kg/day, Study Day 11, 4 h postdose
  plasma robenacoxib concentration (mean ± SD): 66.6 ± 57.4 ng/mL
2X, oral ≥4.8 mg/kg/day, Study Day 14, 4 h postdose
  plasma robenacoxib concentration (mean ± SD): 53.8 ± 59.0 ng/mL
2X, oral ≥4.8 mg/kg/day, Study Day 17, 0.75 h postdose
  plasma robenacoxib concentration (mean ± SD): 4160.0 ± 1166.0 ng/mL
2X, oral ≥4.8 mg/kg/day, Study Day 17, 4 h postdose
  plasma robenacoxib concentration (mean ± SD): 64.5 ± 54.7 ng/mL
2X, oral ≥4.8 mg/kg/day, Study Day 31, 4 h postdose
  plasma robenacoxib concentration (mean ± SD): 101.5 ± 152.6 ng/mL
2X, oral ≥4.8 mg/kg/day, Study Day 34, 4 h postdose
  plasma robenacoxib concentration (mean ± SD): 92.2 ± 58.5 ng/mL
2X, oral ≥4.8 mg/kg/day, Study Day 37, 0.75 h postdose
  plasma robenacoxib concentration (mean ± SD): 4009.4 ± 1765.2 ng/mL
2X, oral ≥4.8 mg/kg/day, Study Day 37, 4 h postdose
  plasma robenacoxib concentration (mean ± SD): 80.0 ± 62.6 ng/mL
3X, SC 6.0 mg/kg/day, Study Day 8, 4 h postdose
  plasma robenacoxib concentration (mean ± SD): 723.3 ± 250.8 ng/mL
3X, SC 6.0 mg/kg/day, Study Day 10, 0.75 h postdose
  plasma robenacoxib concentration (mean ± SD): 2461.3 ± 1075.8 ng/mL
3X, SC 6.0 mg/kg/day, Study Day 10, 4 h postdose
  plasma robenacoxib concentration (mean ± SD): 390.2 ± 236.2 ng/mL
3X, SC 6.0 mg/kg/day, Study Day 28, 4 h postdose
  plasma robenacoxib concentration (mean ± SD): 394.8 ± 187.7 ng/mL
3X, SC 6.0 mg/kg/day, Study Day 30, 0.75 h postdose
  plasma robenacoxib concentration (mean ± SD): 2878.8 ± 831.4 ng/mL
3X, SC 6.0 mg/kg/day, Study Day 30, 4 h postdose
  plasma robenacoxib concentration (mean ± SD): 418.7 ± 246.2 ng/mL
3X, oral ≥7.2 mg/kg/day, Study Day 4, 0.75 h postdose
  plasma robenacoxib concentration (mean ± SD): 5511.8 ± 3389.8 ng/mL
3X, oral ≥7.2 mg/kg/day, Study Day 4, 4 h postdose
  plasma robenacoxib concentration (mean ± SD): 98.0 ± 48.6 ng/mL
3X, oral ≥7.2 mg/kg/day, Study Day 7, 0.75 h postdose
  plasma robenacoxib concentration (mean ± SD): 7267.5 ± 4006.6 ng/mL
3X, oral ≥7.2 mg/kg/day, Study Day 7, 4 h postdose
  plasma robenacoxib concentration (mean ± SD): 76.2 ± 32.2 ng/mL
3X, oral ≥7.2 mg/kg/day, Study Day 11, 4 h postdose
  plasma robenacoxib concentration (mean ± SD): 99.2 ± 36.3 ng/mL
3X, oral ≥7.2 mg/kg/day, Study Day 14, 4 h postdose
  plasma robenacoxib concentration (mean ± SD): 79.1 ± 38.0 ng/mL
3X, oral ≥7.2 mg/kg/day, Study Day 17, 0.75 h postdose
  plasma robenacoxib concentration (mean ± SD): 5798.8 ± 3218.0 ng/mL
3X, oral ≥7.2 mg/kg/day, Study Day 17, 4 h postdose
  plasma robenacoxib concentration (mean ± SD): 108.5 ± 67.8 ng/mL
3X, oral ≥7.2 mg/kg/day, Study Day 31, 4 h postdose
  plasma robenacoxib concentration (mean ± SD): 94.7 ± 69.7 ng/mL
3X, oral ≥7.2 mg/kg/day, Study Day 34, 4 h postdose
  plasma robenacoxib concentration (mean ± SD): 84.2 ± 30.3 ng/mL
3X, oral ≥7.2 mg/kg/day, Study Day 37, 0.75 h postdose
  plasma robenacoxib concentration (mean ± SD): 6460.0 ± 3839.3 ng/mL
3X, oral ≥7.2 mg/kg/day, Study Day 37, 4 h postdose
  plasma robenacoxib concentration (mean ± SD): 123.2 ± 121.7 ng/mL
All dose groups
  oral administration vs subcutaneous injection, average concentrations: higher average 0.75 h concentrations and lower average 4 h concentrations
Comparing concentrations 4 h post oral administration (Days 4, 7, 11, 14, 17, 31, 34, 37)
  accumulation of robenacoxib: no accumulation observed after Day 4; also recorded: No robenacoxib accumulation was observed
